Data from article PMC10292217, “Gene-nutrient interactions that impact magnesium homeostasis increase risk for neural tube defects in mice exposed to dolutegravir” (Frontiers in Cell and Developmental Biology, 2023).
Like-named read-outs stand apart in the source and are kept apart here.

Columns and labels:
C57BL/6J mice [1] = assay: DTG-NTD susceptibility, embryo phenotyping on GD 9.5, C57BL/6J dams; format: in vivo, mouse
Description: Breeding colonies and experimental mice were housed in Thoren micro-isolator cages with autoclaved corncob bedding and maintained on a 12-h light-dark cycle in climate-controlled AAALAC-accredited animal facilities at Creighton University. Mice were given ad libitum access to autoclaved water and pelleted irradiated rodent chow. For timed matings, nulliparous female mice were placed with a male overnight (1 male:2-3 females). The presence of a vaginal plug the next morning was considered GD 0.5. Plugged females were weighed, placed into a separate cage, and randomly assigned to a treatment group. All animal procedures were performed in accordance with the Public Health Service (PHS) policy on Humane Care and Use of Laboratory Animals and approved by the Creighton University Institutional Animal Care and Use Committee (IACUC).
Dolutegravir (CAS 1051375-16-6, GSK1349572) was purchased from MedKoo Biosciences (Morrisville, NC). Pregnant mice were dosed with vehicle (dimethylsulfoxide: Solutol®: 50 mM N-methylglucamine in 3% mannitol [1:1:8, v:w:v]) ([Moss et al., 2015]) or DTG (500 mg/kg or 750 mg/kg) by daily oral gavage beginning on GD 0.5 and continuing until the day of sacrifice (GD 9.5). All treatments were administered in a volume of 0.1 mL/10 g bodyweight (bwt).
The SWV and LM/Bc breeding colonies have been maintained on Envigo Rodent Chow #8904 (a soy protein-based irradiated diet) for >20 years. C3H/HeJ and C57BL/6J mice (6–10 weeks old) were immediately placed on Envigo #8904 upon arrival at Creighton University and were maintained on this diet for a minimum of 1 month prior to analysis of basal plasma and urine cations. The National Research Council (NRC) estimate for the minimum Mg^2+ requirement in adult mice is […] of diet (0.05%). Magnesium in standard rodent diets ranges between […]; the Envigo #8904 soy diet contains .3% Mg^2+ by weight ([…] the NRC requirement) and was therefore considered a ‘high’ Mg^2+ diet. Sources of Mg^2+ in the soy diet include magnesium oxide (∼20%) and Mg^2+ found naturally in grain ingredients (∼80%); it was therefore not possible to remove Mg^2+ to create a soy-based version that was Mg^2+ deficient. To test the hypothesis that low maternal plasma Mg^2+ prior to conception would increase susceptibility to DTG-induced NTDs, it was necessary to switch to casein-based purified ingredient diets with defined levels of Mg^2+ added back. The following casein-based purified ingredient diets were selected as experimental diets: TD.120,574 high Mg^2+ diet (.3% Mg^2+ oxide added to match the .3% high Mg^2+ soy-based diet); TD.98341 control Mg^2+ diet with 0.05% Mg oxide added back to match the NRC requirement; and TD.93106 Mg^2+-deficient diet (<.003%, no Mg^2+ added back). The purified casein diets met or exceeded the NRC requirements for all other minerals and vitamins, including folic acid (Supplementary Table S1: Diet Comparison). Thus, the 4 experimental diets were as follows: 1) high Mg^2+ (.3%) soy diet; 2) high Mg^2+ ([…]) casein diet; 3) control Mg^2+ (.05%) casein diet; and 4) deficient Mg^2+ (<.003%) casein diet. […] Our initial DTG teratology studies were performed in mice on the high Mg^2+ soy diet. However, our objective in the second set of experiments was to reduce pre-conception plasma Mg^2+ levels prior to DTG exposure. To accomplish this objective, weaned female mice were placed on either the high Mg^2+ casein diet or one of the 2 casein-based experimental diets with reduced Mg^2+ (control or deficient) for a minimum of 2 weeks. After this minimum period of acclimation to the experimental casein-based diets, blood and urine samples were collected for Inductively Coupled Plasma Mass Spectrometry (ICP-MS) determination of Mg^2+ (and other cations).
Pregnant dams were anesthetized with isoflurane and sacrificed by cervical dislocation on GD 9.5. […]

[2] = system: Madin-Darby canine kidney II cells; parameters: method as in Zamek-Gliszczynski et al., 2019; details: ref Zamek-Gliszczynski et al., 2019; cited from earlier work
C57BL/6J mice [3] = system: C57BL/6J mice; parameters: method as in Mohan et al., 2021; details: ref Mohan et al., 2021, cited from earlier work
FOLR1 = system: FOLR1; parameters: method as in Gilmore et al., 2022; details: human choriocarcinoma cells; ref Gilmore et al., 2022; cited from earlier work
[4] = high Mg2+ (0.3%) soy diet, DTG 750 mg/kg/d oral GD 0.5-GD 9.5, average % (SD)
[5] = high Mg2+ (0.3%) soy diet, DTG 750 mg/kg/d oral GD 0.5-GD 9.5, mean (SD)
[6] = high Mg2+ (0.3%) soy diet, DTG 750 mg/kg/d oral GD 0.5-GD 9.5, mean (SD) per litter

## C[C@@H]1CCO[C@H]2Cn3cc(C(=O)NCc4ccc(F)cc4F)c(=O)c(O)c3C(=O)N12 [DTG, Dolutegravir]
C57BL/6J mice [1]; high Mg2+ (0.3%) soy diet, DTG 750 mg/kg/d oral GD 0.5-GD 9.5
  Affected litters %: 0.0%
C57BL/6J mice [1]; [4]
  Dev delay/implants, index value: 1.9% (4.15)
  NTDs/embryos, index value: 0.0% (0.00)
  NTDs/implants, index value: 0.0% (0.00)
  Resorptions/implants, index value: 5.3% (9.30)
C57BL/6J mice [1]; [5]
  Implants per litter: 9.80 (1.48)
  Resorptions per litter: 0.50 (0.85)
C57BL/6J mice [1]; [6]
  Dev. delayed: 0.20 (0.42)
  NTDs: 0.00 (0.00)
  Total viable embryos: 9.30 (1.77)
C57BL/6J mice [1]; high Mg2+ soy diet, DTG750, n = 10 litters
  NTDs observed: No NTDs
[2]
  effect on inhibition of folate transport: did not find a significant DTG or INSTI class effect
C57BL/6J mice [3]; 2.5 mg/kg/d oral DTG co-formulated with TDF and FTC from GD 0.5, folate-sufficient diet, 5/150 litters
  NTD-affected litters: 3.3%
C57BL/6J mice [3]; 5x higher dose, n = 111 litters
  NTDs observed: no NTDs were observed
FOLR1
  FOLR1-mediated uptake: reduced
